Drawing on publication PMC12040169 (PLOS Biology, 2025), this text covers viability for 83 molecules.

The nature of this data set: in vitro. Conditions: human, hela cells, % viability.

In general, viability refers to a read-out of living cells in per cent, often relative to untreated cells. As for `CSc1ccccc1C(=O)NCCCn1ccnc1` [CBK269749], the viability at 28.5 h, 10 µM was determined as 85.3%.

Take `COc1cc(CN2CCNC(=O)C2CC(=O)O)cc(OC)c1` (centres unmarked) [CBK269752]: the viability at 28.5 h, 10 µM amounted to 105%.

For `O=C(NCc1cccnc1)c1ccccc1NS(=O)(=O)c1ccc(F)cc1` [CBK269754], the viability at 28.5 h, 10 µM stood at 70.8%. `O=C(O)Cn1nnc(-c2ccc(OCc3ccccc3)cc2)n1` [CBK269755]: the viability at 28.5 h, 10 µM was 85.1%. In the case of `CSc1ccccc1C(=O)NCCN(C)C` [CBK269757], the viability at 28.5 h, 10 µM was 90.9%. Regarding `N#Cc1ccc(NC(=O)c2ccc(-n3cnnc3)cc2Cl)cc1` [CBK269758], the viability at 28.5 h, 10 µM was determined as 87.2%.

Regarding `Cn1c(=O)c2[nH]c(N3CCN(c4cccc(O)c4)CC3)nc2n(C)c1=O` [CBK269760], the viability at 28.5 h, 10 µM was determined as 104%.

Turning to `COc1ccc(Cl)cc1S(=O)(=O)N1CCCC(C(=O)NCc2ccccn2)C1` (centres unmarked) [CBK269761], the viability at 28.5 h, 10 µM worked out at 96.7%. Next, `COCCCn1c(C)c(C)n2c3c(=O)n(CCN4CCCCC4)c(=O)n(C)c3nc12` [CBK269762]: 102%; `COc1ccc(C(=O)Nc2ccccc2N2CCN(C)CC2)c(OC)c1` [CBK269763]: 90.4%. On to `CCN(CC)CCn1c2ccc(C)cc2c2nc(C)sc21` [CBK269764C], for which the viability at 28.5 h, 10 µM amounted to 99.7%. Regarding `CCn1c(SCC(=O)Nc2ccc(N3CCOCC3)cc2)nnc1-c1ccncc1` [CBK269765], the viability at 28.5 h, 10 µM came to 89.7%.

Consider `COc1ccc(OC)c(NC(=O)C(C)Oc2ccccc2OC)c1` (centres unmarked) [CBK269766], for which the viability at 28.5 h, 10 µM came to 85.3%.

Consider `COc1cc(CNc2nc[nH]n2)ccc1OCc1ccc(C)cc1` [CBK269768], for which the viability at 28.5 h, 10 µM amounted to 113%. With `O=C(Nc1ccccc1C(=O)O)c1cccc(-n2cnnc2)c1` [CBK269769], the viability at 28.5 h, 10 µM came to 85.4%.

With `C=CCOc1ccc(-c2nnn(CC(=O)O)n2)cc1` [CBK269772], the viability at 28.5 h, 10 µM amounted to 87.8%. For the molecule `Cc1cccc(-c2nc3ccc(NC(=O)CCC(=O)O)cc3o2)c1` [CBK269773], the viability at 28.5 h, 10 µM came out at 95.1%. The result for `CC(=O)N1CCN(c2ccccc2NC(=O)c2ccc(OCc3ccccc3)cc2)CC1` [CBK269775] reads 103%; that for `C=CCn1c(C)c(C)n2c3c(=O)n(CCN4CCOCC4)c(=O)n(C)c3nc12` [CBK269778], 90.8%. Next, `CS(=O)(=O)Nc1ccc(C(=O)NCCN2CCOCC2)cc1` [CBK269781]: 93.2%; `COc1ccc(OCc2nc(-c3cccs3)no2)cc1` [CBK269782]: 91.7%. The result for `COc1ccc(-c2noc(CNC(=O)Nc3ccc(F)cc3)n2)cc1OC` [CBK269784] reads 97.2%; that for `CN(C)S(=O)(=O)N1CCN(c2ccnc3cc(Cl)ccc23)CC1` [CBK269785], 99.2%; that for `CCCOc1ccc(C(=O)NCc2ccccn2)cc1` [CBK269789], 93.9%.

For `Cc1ccccc1CSCC(=O)Nc1c[nH]c(=O)[nH]c1=O` [CBK269790], the viability at 28.5 h, 10 µM turned out to be 86.8%. Next, `CCOC(=O)CC1C(=O)NCCN1C/C=C\c1ccccc1OC` (centres unmarked) [CBK269791]: 94.3%. With `COc1ccc(S(=O)(=O)NCCCN2CCOCC2)c(Cl)c1Cl` [CBK269792], the viability at 28.5 h, 10 µM was 95.3%.

As to `O=C1c2ccccc2C(=O)N1CCc1nn2c(-c3cccnc3)nnc2s1` [CBK269793], the viability at 28.5 h, 10 µM turned out to be 97.9%. The result for `Cn1c(=O)c2[nH]c(NCCc3ccc(Cl)cc3)nc2n(C)c1=O` [CBK269794] reads 92%; that for `COc1cccc(CNCC2CCCO2)c1OCc1ccccc1` (centres unmarked) [CBK269798C], 105%. Next, `Cc1ccc(S(=O)(=O)CC(=O)Nc2ncccn2)cc1` [CBK269800]: 97.3%; `CS(=O)(=O)N1CCC(C(=O)NC(c2ccccc2)c2ccccc2)CC1` [CBK269801]: 77.8%. As for `Cc1ccc(OC(C)C(=O)Nc2ccccc2C(=O)N2CCN(C)CC2)cc1` (centres unmarked) [CBK269802], the viability at 28.5 h, 10 µM worked out at 88.6%. With `COc1cc(C(=O)Nc2ccccc2C(=O)N2CCN(C)CC2)cc(OC)c1OC` [CBK269803], the viability at 28.5 h, 10 µM worked out at 88.5%. The result for `O=C(O)c1cc(NC/C=C/c2ccccc2)ccc1N1CCOCC1` [CBK269806] reads 106%. `O=C1Nc2ccccc2Oc2ccc(S(=O)(=O)N3CCOCC3)cc21` [CBK269807]: the viability at 28.5 h, 10 µM amounted to 75.5%. On to `O=c1c2c3c(sc2ncn1Cc1nn[nH]n1)CCCC3` [CBK269808], for which the viability at 28.5 h, 10 µM was 83.9%. The result for `O=C(c1cccc(-c2nnc(-c3ccccc3)o2)c1)N1CCN(C(=O)c2ccco2)CC1` [CBK269809] reads 78.5%. The result for `Cc1cc(C)n(-c2nc(NC(C)(C)C)nc(N3CCOCC3)n2)n1` [CBK269810] reads 85.5%; that for `CC(=O)C(Sc1nc(NC(C)C)nc(N(C)C)n1)C(C)=O` [CBK269811], 90.8%; that for `COc1ccc(Cl)cc1-c1noc(Cn2nc(C)c(Cl)c2C)n1` [CBK269813], 92.1%.

Regarding `O=C(O)c1cc(NC(=O)C2CCCO2)ccc1O` (centres unmarked) [CBK269815], the viability at 28.5 h, 10 µM was 99%. Next, `Cc1ccc(CNC(=O)COc2ccc(S(=O)(=O)N3CCOCC3)cc2)cc1` [CBK269816]: 87.8%; `Cn1cccc1CNCc1ccccn1` [CBK269818C]: 96%. For `NS(=O)(=O)c1ccc(CCNCc2ccc3c(c2)OCO3)cc1` [CBK269819C], the viability at 28.5 h, 10 µM is 88.5%. `Cc1cn2c3c(=O)n(CCN4CCCCC4)c(=O)n(C)c3nc2n1CC1CCCO1` (centres unmarked) [CBK269820]: the viability at 28.5 h, 10 µM was determined as 91.9%. As for `CCOC(=O)C1CCN(S(=O)(=O)c2ccc(NC(=O)N3CCCC3)cc2)CC1` [CBK269823], the viability at 28.5 h, 10 µM is 100%. Next, `OCCC1CNCCN1Cc1ccc(F)c(F)c1` (centres unmarked) [CBK269824]: 85.6%; `CSc1nsc(SCC(=O)Nc2ccccc2C#N)n1` [CBK269826]: 95.1%; `CS(=O)(=O)Nc1ccc(C(=O)N2CC(=O)Nc3ccccc32)cc1` [CBK269827]: 90.8%. The result for `COc1cc(C)nc(NC(=O)Nc2cccc(Cl)c2)n1` [CBK269828] reads 94.2%. The result for `CC(=O)c1c(C)nn(CCC(=O)Nc2ccc(Cl)c(Cl)c2)c1C` [CBK269829] reads 99.3%; that for `O=C(Nc1ccccc1)N(Cc1nc(-c2ccccc2)no1)C1CCCCC1` [CBK269830], 93.2%; that for `O=C(O)CSc1nc2ccccc2n2cnnc12` [CBK269831], 92.8%. Consider `CSc1nsc(SCC(=O)Nc2cccc(NC(C)=O)c2)n1` [CBK269833], for which the viability at 28.5 h, 10 µM stood at 93.2%.

Turning to `Cc1cc(CNC(=O)c2cc3ccccc3oc2=O)c2ccccc2n1` [CBK269834], the viability at 28.5 h, 10 µM worked out at 94.2%. `COc1ccc(Cl)cc1S(=O)(=O)N1CCC(C(=O)NCCCO)CC1` [CBK269835]: the viability at 28.5 h, 10 µM is 99%.

For the molecule `COc1ccc(S(=O)(=O)NCCN2CCOCC2)cc1Br` [CBK269838], the viability at 28.5 h, 10 µM came to 91.4%. Next, `COc1nc2ccccc2nc1CCc1nc(-c2ccccc2)no1` [CBK269840]: 86%. The result for `c1ccc2c(c1)nc(N1CCOCC1)n2CCN1CCOCC1` [CBK269841] reads 99.6%; that for `Cc1ccc(CN2CCNCC2CCO)o1` (centres unmarked) [CBK269844], 92.3%; that for `O=C(Nc1cccnc1)c1cccc(S(=O)(=O)N2CCCC2)c1` [CBK269846], 93.3%.

Consider `CCNC(=O)N1C(CC(=O)Nc2cccc(OC)c2)C(=O)NC2CCCCC21` (centres unmarked) [CBK269848], for which the viability at 28.5 h, 10 µM stood at 90.6%. As for `COc1ccccc1CNCCc1ccc(S(N)(=O)=O)cc1` [CBK269852C], the viability at 28.5 h, 10 µM worked out at 99.7%. In the case of `COc1ccc(Cl)cc1C(=O)Nc1cnn(CCCC(=O)O)c1` [CBK269855], the viability at 28.5 h, 10 µM was 80.7%. Next, `O=C(CCC1COc2ccccc2O1)Nc1ccc(C(=O)O)cc1` (centres unmarked) [CBK269856]: 89.7%; `C=CCN(Cc1nc(-c2ccccc2)no1)C(=O)Nc1ccc(C)cc1` [CBK269859]: 103%. Next, `COc1cc(CNCCc2c[nH]c3ccccc23)cc(Cl)c1OC` [CBK269861C]: 88.5%; `N#Cc1ccccc1Cn1cc(C(=O)C(N)=O)c2ccccc21` [CBK269862]: 93.5%. For the molecule `CC(C)N(Cc1nc(-c2ccccc2)no1)C(=O)Nc1cccc(Cl)c1` [CBK269871], the viability at 28.5 h, 10 µM amounted to 93.5%.

For the molecule `Cc1ccc(NC(=O)CSc2nnc(-c3cnccn3)s2)cc1` [CBK269872], the viability at 28.5 h, 10 µM stood at 83.3%. For `COc1cc2c(cc1OC)C(C)N(C(=O)CCC(=O)O)CC2` (centres unmarked) [CBK269873], the viability at 28.5 h, 10 µM stood at 92.5%. With `CCOc1cc(S(=O)(=O)NCCCn2ccnc2)ccc1Cl` [CBK269874], the viability at 28.5 h, 10 µM turned out to be 89%. On to `Cc1ccnc(SCc2cc(=O)c3c(=O)n(-c4ccccc4)[nH]c3[nH]2)n1` [CBK269875], for which the viability at 28.5 h, 10 µM came to 110%.

On to `COc1ccc(Cl)cc1S(=O)(=O)N1CCC(C(=O)NCc2cccnc2)CC1` [CBK269878], for which the viability at 28.5 h, 10 µM worked out at 93.4%. For the molecule `COc1cccc(C(=O)Nc2cnn(CCCC(=O)O)c2)c1` [CBK269879], the viability at 28.5 h, 10 µM is 89.6%. Next, `O=C(NCCc1c[nH]cn1)NC12CC3CC(CC(C3)C1)C2` [CBK269880]: 86.2%.

Consider `COc1ccc(CNC(=O)CSc2cnn[nH]2)cc1` [CBK269881], for which the viability at 28.5 h, 10 µM turned out to be 85.6%. Take `O=C(O)Cn1nnc(-c2ccncc2)n1` [CBK269884]: the viability at 28.5 h, 10 µM is 86.6%. The result for `Cc1cc(S(=O)(=O)N2CCCC2)ccc1OCC(=O)NCc1ccncc1` [CBK269886] reads 91.3%.

For the molecule `Cc1ccc(SCCNc2nc3c([nH]2)c(=O)n(C)c(=O)n3C)cc1` [CBK269887], the viability at 28.5 h, 10 µM was 92.7%. For the molecule `O=C(Nc1ccc(N2CCOCC2)cc1)c1ccc(-n2cnnc2)cc1Cl` [CBK269889], the viability at 28.5 h, 10 µM is 91%.

For `COCCn1c(CN2CCOCC2)nc2c1c(=O)[nH]c(=O)n2C` [CBK269890], the viability at 28.5 h, 10 µM came to 100%.
